Experiments:
[1] = Saturated solubility of ON.1210.Na in different solvent systems; assay type: physicochemical; details: for solubility at 24 h: 24 hours of equilibration; for solubility at 48 h: 48 hours of equilibration
[2] = Octanol:water partition coefficient; assay type: physicochemical
Protocol: (§1) A stability indicating HPLC assay is used during the preformulation studies. Preformulation studies include determination of microscopic and macroscopic properties, partition coefficient, pKa, pH-solubility, pH-stability, solid-state characterization and solid-state stability. XRD and thermal analyses re used to characterize the solid and solid-state stability. The solid-state stability as well as the pH stability of the drug is carried out at 75° C.

[3] = pH-solubility study (equilibrium solubility, pKa); assay type: physicochemical; details: for solubility thermodynamic: aqueous solution (buffer not named), thermodynamic from solid
Protocol: as §1

[4] = pH-stability study under accelerated conditions; assay type: physicochemical
Protocol: as §1

[5] = Solid-state stability of ON.1210.Na at 75° C.; assay type: physicochemical
Protocol: as §1
The stability of ON.1210.Na in the solid state is determined by exposing the drug at 75° C. over a prolonged time. The sample is crimped in a 10 mL injection vial and kept at the above temperature. The sample is collected after 15 days and one month and reconstituted with diluting solution and its concentration is determined by HPLC. Appearance of any additional peak in the chromatogram is also noted. A control sample is represented by ON.1210.Na not exposed to 75° C. and reconstituted to a known concentration with diluting solution.

[6] = Stability of solid drug after autoclaving (HPLC); assay type: physicochemical; details: autoclaved in a crimped vial
Protocol: A solid drug sample (ON1210), after autoclaving in a crimped vial, is also evaluated for any degradation using the developed HPLC method. The sample, after autoclaving, is used to make a standard solution of 400 μg/mL and injected onto HPLC.

[7] = Half life by route of administration and as suspension; assay type: in vivo
Protocol: When, ON.1210.Na, for example, is administered as a suspension described herein the half life of the drug is on the order of 30-40 hours depending on the specific formulation and its viscosity. This dramatic increase in half-life translates to prolonged exposure to drug over a period of 72 hours and beyond. This increase is possible because of an apparent low dissolution rate of drug from the site of administration.

[8] = General physical properties: solubility in water; assay type: physicochemical
Source text: 1210.Na. The example compound is a sodium salt of (E)-4-Carboxystyryl-4-chlorobenzylsulfone.

O=C([O-])c1ccc(/C=C/S(=O)(=O)Cc2ccc(Cl)cc2)cc1.[Na+] [ON.1210.Na, (E)-4-Carboxystyryl-4-chlorobenzylsulfone, Sodium Salt]
solubility ([1]; 0.25% Tween 80 in phosphate buffer, pH 8.45, aqueous with cosolvent or surfactant or cyclodextrin): 9.5 mg/mL
solubility ([1]; 0.25% tween 80 in water, pH 8.87, aqueous with cosolvent or surfactant or cyclodextrin): 10.5 mg/mL
solubility ([1]; 0.5% Tween 80 in phosphate buffer, pH 8.41, aqueous with cosolvent or surfactant or cyclodextrin): 9.8 mg/mL
solubility ([1]; 0.5% tween 80 in water, pH 8.74, aqueous with cosolvent or surfactant or cyclodextrin): 10.3 mg/mL
solubility ([1]; 1% (w/v) Povidone K 90 in water, pH 8.69, aqueous with cosolvent or surfactant or cyclodextrin): 209 mg/mL
solubility ([1]; 1% PVP C 15, pH 8.86, aqueous with cosolvent or surfactant or cyclodextrin, thermodynamic from solid): 26.9 mg/mL
solubility ([1]; 1% PVP C 30, pH 8.02, aqueous with cosolvent or surfactant or cyclodextrin, thermodynamic from solid): 25.1 mg/mL
solubility ([1]; 1% Tween 80 in phosphate buffer, pH 8.45, aqueous with cosolvent or surfactant or cyclodextrin): 8.9 mg/mL
solubility ([1]; 1% tween 80 in water, pH 8.82, aqueous with cosolvent or surfactant or cyclodextrin): 10.1 mg/mL
solubility ([1]; 2% PVP C 15, pH 8.69, aqueous with cosolvent or surfactant or cyclodextrin, thermodynamic from solid): 26.9 mg/mL
solubility ([1]; 2% Tween 80 in phosphate buffer, pH 8.39, aqueous with cosolvent or surfactant or cyclodextrin): 9.7 mg/mL
solubility ([1]; 2% tween 80 in water, pH 8.78, aqueous with cosolvent or surfactant or cyclodextrin): 9 mg/mL
solubility ([1]; 5% (w/v) Povidone K 90 in Water, pH 8.35, aqueous with cosolvent or surfactant or cyclodextrin): 152 mg/mL
solubility ([1]; 10% PEG400:water, pH 8.24, aqueous with cosolvent or surfactant or cyclodextrin, thermodynamic from solid): 36 mg/mL
solubility ([1]; 20% HPCD:20% PEG 400:60% water, pH 8.2, aqueous with cosolvent or surfactant or cyclodextrin): 53.6 mg/mL
solubility ([1]; 25% PEG400:water, pH 8.01, aqueous with cosolvent or surfactant or cyclodextrin, thermodynamic from solid): 39 mg/mL
solubility ([1]; 40% HPCD, pH 7.86, aqueous with cosolvent or surfactant or cyclodextrin): 109 mg/mL
solubility ([1]; 50% PEG400:Buffer (0.01M), pH 8.2, aqueous with cosolvent or surfactant or cyclodextrin): 20.8 mg/mL
solubility ([1]; 50% PEG400:Buffer (0.07M), pH 8.2, aqueous with cosolvent or surfactant or cyclodextrin): 23.4 mg/mL
solubility ([1]; 50% PEG400:water, pH 7.53, aqueous with cosolvent or surfactant or cyclodextrin): 40 mg/mL
solubility ([1]; 50:50 PEG400:ethanol, pH 8.46, organic solvent or mixture): 37 mg/mL
solubility ([1]; 100% ethanol, pH 7.94, organic solvent or mixture): 0.9 mg/mL
solubility ([1]; DMA:WATER:Ethanol (1:1:1), aqueous with cosolvent or surfactant or cyclodextrin): 46.4 mg/mL
solubility ([1]; NN-Dimethyl Acetamide:Water:PEG 400 (1:2:2), pH 7.9, aqueous with cosolvent or surfactant or cyclodextrin): 66.2 mg/mL
solubility ([1]; PEG300:ETH (70:30), pH 8.99, organic solvent or mixture): 48.3 mg/mL
solubility ([1]; PEG 300:water (50:50), pH 4.5, aqueous with cosolvent or surfactant or cyclodextrin): 30.6 mg/mL
solubility ([1]; PEG400:Benzyl alcohol (50:50), pH 8.19, organic solvent or mixture): 51.6 mg/mL
solubility ([1]; PEG400:Ethanol 70:30, organic solvent or mixture): 55.5 mg/mL
solubility ([1]; Propylene Glycol, organic solvent or mixture): 44 mg/mL
solubility ([1]; Propylene glycol:water (50:50), pH 8.53, aqueous with cosolvent or surfactant or cyclodextrin): 41.6 mg/mL
solubility at 24 h ([1]; aqueous with cosolvent or surfactant or cyclodextrin, thermodynamic from solid, 10% cyclodextran): 46 mg/mL
solubility at 24 h ([1]; aqueous with cosolvent or surfactant or cyclodextrin, thermodynamic from solid, 20% cyclodextran): 62 mg/mL
solubility ([1]; pH 8.21, organic solvent or mixture, PEG300 (IP10 g/kg)): 52 mg/mL
solubility at 24 h ([1]; pH 8.32, aqueous with cosolvent or surfactant or cyclodextrin, thermodynamic from solid, 5% cyclodextran): 39 mg/mL
solubility ([1]; pH 8.34, organic solvent or mixture, 100% PEG 400 (12 g/kg)): 26 mg/mL
solubility at 48 h ([1]; pH 8.35, aqueous with cosolvent or surfactant or cyclodextrin, thermodynamic from solid, 20% cyclodextran): 58 mg/mL
solubility at 48 h ([1]; pH 8.41, aqueous with cosolvent or surfactant or cyclodextrin, thermodynamic from solid, 10% cyclodextran): 41 mg/mL
solubility at 48 h ([1]; pH 8.52, aqueous with cosolvent or surfactant or cyclodextrin, thermodynamic from solid, 5% cyclodextran): 32 mg/mL
solubility ([1]; water, pH 8.4, water): 11.8 mg/mL
octanol:water partition coefficient [2]: 1.28-2.87
solubility thermodynamic ([3]; aqueous buffer, pH 4.0): 0.000154 mg/mL
solubility thermodynamic ([3]; aqueous buffer, pH 5.0): 0.0379 mg/mL
solubility thermodynamic ([3]; aqueous buffer, pH 6.0): 0.715 mg/mL
solubility thermodynamic ([3]; aqueous buffer, pH 8.0): 16.8 mg/mL
solubility thermodynamic ([3]; aqueous buffer, pH 9.0): 23.3 mg/mL
solubility thermodynamic ([3]; pH 7.4, aqueous buffer): 11.1 mg/mL
pKa ([3]; calculated from pH-solubility studies): 2.85 ± 0.6
pH-stability profile ([4]; 75° C., Sodium Salt): better stability at neutral and biological pH but degradation is rapid under acidic condition
stability in aqueous environment ([4]; biological pH): quite stable in an aqueous environment at biological pH
degradation rate order ([4]; pH-stability study, Sodium Salt): pseudo-first-order rate
accelerated solid-state stability of bulk drug substance [5]: no evidence of degradation
stability of bulk solid drug [6]: stable under the autoclaving conditions
half-life ([7]; in vivo, administered as a suspension): 30 to 40 h
half life ([7]; intramuscular in contrast to intravenous): increases significantly
half life ([7]; subcutaneous administration, compared with intramuscular): increases even further
solubility [8]: 8 to 10 mg/mL

From patent US20090247624A1, “FORMULATIONS OF RADIOPROTECTIVE ALPHA BETA UNSATURATED ARYL SULFONES” (Onconova Therapeutics Inc., priority 2006, published 2009)
